Target: T1, PLK1 (Homo sapiens, UniProt P53350)
T1 construct: Full-length, active GST-PLK1 is purified from Sf9 insect cells; made in house; host or cells: Sf9 insect cells
Test: Biochemical Characterization Assay: HTRF kinase assay, GST-PLK1 phosphorylation of GST-p53
Conditions: GST-PLK1, GST-p53 substrate
Method in brief: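 HTRF read-out of p53 phosphorylation: after EDTA stop, anti-phospho-p53 antibody bound 30 min at 37 °C in HEPES pH 7 buffer, with Eu-anti-rabbit/APC-anti-GST detection. Kinase step used full-length Sf9-expressed GST-PLK1 (3 ug/mL) and E. coli GST-p53 substrate, 35 min at 37 °C.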

T1 sequence (P53350 whole entry): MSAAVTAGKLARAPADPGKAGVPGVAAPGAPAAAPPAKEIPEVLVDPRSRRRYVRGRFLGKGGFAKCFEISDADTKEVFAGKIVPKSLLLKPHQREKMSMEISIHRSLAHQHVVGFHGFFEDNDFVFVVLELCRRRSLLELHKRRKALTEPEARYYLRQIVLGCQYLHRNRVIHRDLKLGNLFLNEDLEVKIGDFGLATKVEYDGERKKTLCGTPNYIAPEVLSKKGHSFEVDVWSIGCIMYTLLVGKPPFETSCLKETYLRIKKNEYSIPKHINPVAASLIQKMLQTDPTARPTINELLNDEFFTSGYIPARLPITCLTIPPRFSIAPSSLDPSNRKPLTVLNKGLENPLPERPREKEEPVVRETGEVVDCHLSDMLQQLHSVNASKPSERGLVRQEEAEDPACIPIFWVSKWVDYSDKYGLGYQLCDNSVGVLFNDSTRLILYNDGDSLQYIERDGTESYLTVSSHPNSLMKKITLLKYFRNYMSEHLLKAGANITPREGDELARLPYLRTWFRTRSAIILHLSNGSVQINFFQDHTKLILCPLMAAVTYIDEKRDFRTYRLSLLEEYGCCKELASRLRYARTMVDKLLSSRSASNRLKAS

Row | SMILES | IC50 (ATP) [µM] | IC50 [µM]
1 | COc1cc(C(=O)N2CCOCC2)ccc1Nc1ncc2c(n1)N(C1CCCC1)CC(F)(F)C(=O)N2C [Example I-127, 9-cyclopentyl-7,7-difluoro-2-[2-methoxy-4-(morpholine-4-carbonyl)-phenylamino]-5-methyl-5,7,8,9-tetrahydro-pyrimido[4,5-b][1,4]diazepin-6-one] | 0.001 to 0.05 | 
2 | CCN1CCC(NC(=O)c2ccc(Nc3ncc4c(n3)N(C3CCCC3)CC(F)(F)C(=O)N4C)c(F)c2)CC1 [Example I-224, 4-(9-cyclopentyl-7,7-difluoro-5-methyl-6-oxo-6,7,8,9-tetrahydro-5H-pyrimido[4,5-b][1,4]diazepin-2-ylamino)-N-(1-ethyl-piperidin-4-yl)-3-fluoro-benzamidemide] |  | 0.001 to 0.05
3 | CN1C(=O)C(F)(F)CN(C2CCC2)c2nc(Nc3ccc(C(=O)N4CCC(N)CC4)cc3)ncc21 [Example I-15, 2-[4-(4-amino-piperidine-1-carbonyl)-phenylamino]-9-cyclobutyl-7,7-difluoro-5-methyl-5,7,8,9-tetrahydro-pyrimido[4,5-b][1,4]diazepin-6-one] | 0.051 to 0.5 | 
4 | COc1cc(C(=O)N[C@@H]2CCN(Cc3ccccc3)C2)ccc1Nc1ncc2c(n1)N(C1CCCC1)CC(F)(F)C(=O)N2C [Example I-101, N—((R)-1-benzyl-pyrrolidin-3-yl)-4-(9-cyclopentyl-7,7-difluoro-5-methyl-6-oxo-6,7,8,9-tetrahydro-5H-pyrimido[4,5-b][1,4]diazepin-2-ylamino)-3-methoxy-benzamide] | 0.001 to 0.05 | 
5 | CN1C(=O)C(F)(F)CN(C2CCCC2)c2nc(Nc3ccc(C(=O)NC4CCN(C(=O)OC(C)(C)C)CC4)cc3F)ncc21 [Example I-229, 4-[4-(9-cyclopentyl-7,7-difluoro-5-methyl-6-oxo-6,7,8,9-tetrahydro-5H-pyrimido[4,5-b][1,4]diazepin-2-ylamino)-3-fluoro-benzoylamino]-piperidine-1-carboxylic acid tert-butyl ester] |  | 0.001 to 0.05
6 | CN1CCC(NC(=O)c2ccc(Nc3ncc4c(n3)N(C3CCCC3)CC(F)(F)C(=O)N4C)c(Cl)c2)CC1 [Example I-179, 3-chloro-4-(9-cyclopentyl-7,7-difluoro-5-methyl-6-oxo-6,7,8,9-tetrahydro-5H-pyrimido[4,5-b][1,4]diazepin-2-ylamino)-N-(1-methyl-piperidin-4-yl)-benzamide] |  | 0.001 to 0.05
7 | CN(C)CCCNC(=O)c1cc(F)c(Nc2ncc3c(n2)N(C2CCCC2)CC(F)(F)C(=O)N3C)cc1F [Example I-237, 4-(9-cyclopentyl-7,7-difluoro-5-methyl-6-oxo-6,7,8,9-tetrahydro-5H-pyrimido[4,5-b][1,4]diazepin-2-ylamino)-N-(3-dimethylamino-propyl)-2,5-difluoro-benzamide] |  | 0.001 to 0.05
8 | COc1cc(C(=O)O)ccc1Nc1ncc2c(n1)N(C1CCCCC1)CC(F)(F)C(=O)N2C [Example I-246, 4-(9-cyclohexyl-7,7-difluoro-5-methyl-6-oxo-6,7,8,9-tetrahydro-5H-pyrimido[4,5-b][1,4]diazepin-2-ylamino)-3-methoxy-benzoic acid] |  | 0.001 to 0.05
9 | COc1cc(C(=O)NC2CCN(C)CC2)ccc1Nc1ncc2c(n1)N(CCc1cccs1)CC(F)(F)C(=O)N2C [Example I-270, 4-[7,7-difluoro-5-methyl-6-oxo-9-(2-thiophen-2-yl-ethyl)-6,7,8,9-tetrahydro-5H-pyrimido[4,5-b][1,4]diazepin-2-ylamino]-3-methoxy-N-(1-methyl-piperidin-4-yl)-benzamide] |  | 0.001 to 0.05
10 | COc1cc(C(=O)NCc2ccc(C(F)(F)F)cc2)ccc1Nc1ncc2c(n1)N(C1CCCC1)CC(F)(F)C(=O)N2C [Example I-36, 4-(9-cyclopentyl-7,7-difluoro-5-methyl-6-oxo-6,7,8,9-tetrahydro-5H-pyrimido[4,5-b][1,4]diazepin-2-ylamino)-3-methoxy-N-(4-trifluoromethyl-benzyl)-benzamide] | 0.5 to 5 | 
11 | CN1C(=O)C(F)(F)CN(C2CCCC2)c2nc(Nc3ccc(C(=O)NC4CCOCC4)cc3F)ncc21 [Example I-225, 4-(9-cyclopentyl-7,7-difluoro-5-methyl-6-oxo-6,7,8,9-tetrahydro-5H-pyrimido[4,5-b][1,4]diazepin-2-ylamino)-3-fluoro-N-(tetrahydro-pyran-4-yl)-benzamide] |  | 0.001 to 0.05
12 | COc1cc(C(=O)N[C@@H]2CN(C(=O)OC(C)(C)C)C[C@H]2O)ccc1Nc1ncc2c(n1)N(C1CCCC1)CC(F)(F)C(=O)N2C [Example I-103, (3R,4R)-3-[4-(9-cyclopentyl-7,7-difluoro-5-methyl-6-oxo-6,7,8,9-tetrahydro-5H-pyrimido[4,5-b][1,4]diazepin-2-ylamino)-3-methoxy-benzoylamino]-4-hydroxy-pyrrolidine-1-carboxylic acid tert-butyl ester] | 0.001 to 0.05 | 
13 | COc1cc(C(=O)NCCCN2CCCCC2C)ccc1Nc1ncc2c(n1)N(C1CCCC1)CC(F)(F)C(=O)N2C (stereo not shown) [Example I-110, 4-(9-cyclopentyl-7,7-difluoro-5-methyl-6-oxo-6,7,8,9-tetrahydro-5H-pyrimido[4,5-b][1,4]diazepin-2-ylamino)-3-methoxy-N-[3-(2-methyl-piperidin-1-yl)-propyl]-benzamide] | 0.001 to 0.05 | 
14 | COc1cc(C(=O)NC2CCN(C)CC2)ccc1Nc1ncc2c(n1)NCC(F)(F)C(=O)N2C [Example I-303, 4-(7,7-difluoro-5-methyl-6-oxo-6,7,8,9-tetrahydro-5H-pyrimido[4,5-b][1,4]diazepin-2-ylamino)-3-methoxy-N-(1-methyl-piperidin-4-yl)-benzamide] |  | 0.051 to 0.5
15 | COc1cc(C(=O)NC(C)C)ccc1Nc1ncc2c(n1)N(C1CCCC1)CC(F)(F)C(=O)N2C [Example I-25, 4-(9-cyclopentyl-7,7-difluoro-5-methyl-6-oxo-6,7,8,9-tetrahydro-5H-pyrimido[4,5-b][1,4]diazepin-2-ylamino)-N-isopropyl-3-methoxy-benzamide] | 0.001 to 0.05 | 
16 | CN1CCC(NC(=O)c2ccc(Nc3ncc4c(n3)N(C3CCC3)CC(F)(F)C(=O)N4C)cc2)CC1 [Example I-16, 4-(9-cyclobutyl-7,7-difluoro-5-methyl-6-oxo-6,7,8,9-tetrahydro-5H-pyrimido[4,5-b][1,4]diazepin-2-ylamino)-N-(1-methyl-piperidin-4-yl)-benzamide] | 0.001 to 0.05 | 
17 | CCN1CCC(NC(=O)c2ccc(Nc3ncc4c(n3)N(C3CCCC3)CC(F)(F)C(=O)N4C)c(OC)c2)CC1 [Example I-67, 4-(9-cyclopentyl-7,7-difluoro-5-methyl-6-oxo-6,7,8,9-tetrahydro-5H-pyrimido[4,5-b][1,4]diazepin-2-ylamino)-N-(1-ethyl-piperidin-4-yl)-3-methoxy-benzamide] | 0.001 to 0.05 | 
18 | CNC(=O)c1ccc(Nc2ncc3c(n2)N(C2CCCCC2)CC(F)(F)C(=O)N3C)c(OC)c1 [Example I-249, 4-(9-cyclohexyl-7,7-difluoro-5-methyl-6-oxo-6,7,8,9-tetrahydro-5H-pyrimido[4,5-b][1,4]diazepin-2-ylamino)-3-methoxy-N-methyl-benzamide] |  | 0.001 to 0.05
19 | COc1cc(C(=O)NC2CC(C)(C)N(C)C(C)(C)C2)ccc1Nc1ncc2c(n1)N(C1CCCC1)CC(F)(F)C(=O)N2C [Example I-85, 4-(9-cyclopentyl-7,7-difluoro-5-methyl-6-oxo-6,7,8,9-tetrahydro-5H-pyrimido[4,5-b][1,4]diazepin-2-ylamino)-3-methoxy-N-(1,2,2,6,6-pentamethyl-piperidin-4-yl)-benzamide] | 0.001 to 0.05 | 

— patent publication US8003785B2 (Takeda Pharmaceutical Company Limited, priority 2008, dated 2011)
